Data as given in patent US10844077B2, “Thiazolyl-containing compounds for treating proliferative diseases” (Dana-Farber Cancer Institute, Inc., priority 2014, dated 2020).
Several values for one entry are separate records, joined by “and”; a condition that tells them apart may be missing. Identical values can stand only once.

Columns and labels:
Test in all cases: KINATIV assay
Assay type in all cases: cell-based
Settings in all cases: 1 μM, 90 minutes, BCWM.1 cells
AurA, AurB, AurC = tested on: AurA, AurB, AurC
Method in brief: (§1)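 ATP-biotin probe labeling of whole-cell lysates, followed by ACTIVX identification/quantitation of bound kinases; compounds in duplicate.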

Wnk1, Wnk2 = tested on: Wnk1, Wnk2
Method in brief: as §1

PIK3CG = PIK3CG (Homo sapiens (Human), UniProt P48736)
Method in brief: as §1

CK2a1 = CK2a1 (Homo sapiens (Human), UniProt P68400)
Method in brief: as §1

MAP3K1 = MAP3K1 (Homo sapiens (Human), UniProt Q13233)
Method in brief: as §1

NEK4 = NEK4 (Homo sapiens (Human), UniProt P51957)
Method in brief: as §1

MLK3 = MLK3 (Homo sapiens (Human), UniProt Q16584)
Method in brief: as §1

CDK4 = CDK4 (Homo sapiens (Human), UniProt P11802)
Method in brief: as §1

MST1, MST2 = tested on: MST1, MST2
Method in brief: as §1

SRC = SRC (Homo sapiens (Human), UniProt P12931)
Method in brief: as §1

KSR1, KSR2 = tested on: KSR1, KSR2
Method in brief: as §1

TAO1, TAO3 = tested on: TAO1, TAO3
Method in brief: as §1

FGR = FGR (Homo sapiens (Human), UniProt P09769)
Method in brief: as §1

MAP3K5 = MAP3K5 (Homo sapiens (Human), UniProt Q99683)
Method in brief: as §1

LRRK2 = LRRK2 (Homo sapiens (Human), UniProt Q5S007)
Method in brief: as §1

[1] = tested on: ZC1/HGK, ZC2/TNIK, ZC3/MINK
Method in brief: as §1

TEC = TEC (Homo sapiens (Human), UniProt P42680)
Method in brief: as §1

STLK6 = STLK6 (Homo sapiens (Human), UniProt Q9C0K7)
Method in brief: as §1

PI4KA, PI4KAP2 = tested on: PI4KA, PI4KAP2
Method in brief: as §1

p38b = p38b (Homo sapiens (Human), UniProt Q15759)
Method in brief: as §1

YSK1 = YSK1 (Homo sapiens (Human), UniProt O00506)
Method in brief: as §1

Erk2 = Erk2 (Homo sapiens (Human), UniProt P28482)
Method in brief: as §1

MAP3K4 = MAP3K4 (Homo sapiens (Human), UniProt Q9Y6R4)
Method in brief: as §1

MAP3K2 = MAP3K2 (Homo sapiens (Human), UniProt Q9Y2U5)
Method in brief: as §1

ACK = ACK (Homo sapiens (Human), UniProt Q07912)
Method in brief: as §1

MARK2, MARK3 = tested on: MARK2, MARK3
Method in brief: as §1

LCK = LCK (Homo sapiens (Human), UniProt P06239)
Method in brief: as §1

MAP3K6 = MAP3K6 (Homo sapiens (Human), UniProt O95382)
Method in brief: as §1

CK1a = CK1a (Homo sapiens (Human), UniProt P48729)
Method in brief: as §1

PIP5K3 = PIP5K3 (Homo sapiens (Human), UniProt Q9Y2I7)
Method in brief: as §1

MAST3 = MAST3 (Homo sapiens (Human), UniProt O60307)
Method in brief: as §1

MAP2K1 = MAP2K1 (Homo sapiens (Human), UniProt Q02750)
Method in brief: as §1

PIK3CD = PIK3CD (Homo sapiens (Human), UniProt O00329)
Method in brief: as §1

TAO2 = TAO2 (Homo sapiens (Human), UniProt Q9UL54)
Method in brief: as §1

NEK1 = NEK1 (Homo sapiens (Human), UniProt Q96PY6)
Method in brief: as §1

PAN3 = PAN3 (Homo sapiens (Human), UniProt Q58A45)
Method in brief: as §1

CDK11, CDK8 = tested on: CDK11, CDK8
Method in brief: as §1

BRAF = BRAF (Homo sapiens (Human), UniProt P15056)
Method in brief: as §1

ABL, ARG = tested on: ABL, ARG
Method in brief: as §1

CDC2 = CDC2 (Homo sapiens (Human), UniProt P06493)
Method in brief: as §1

AMPKa1, AMPKa2 = tested on: AMPKa1, AMPKa2
Method in brief: as §1

TLK1 = TLK1 (Homo sapiens (Human), UniProt Q9UKI8)
Method in brief: as §1

TEC, sequence (P42680 whole entry): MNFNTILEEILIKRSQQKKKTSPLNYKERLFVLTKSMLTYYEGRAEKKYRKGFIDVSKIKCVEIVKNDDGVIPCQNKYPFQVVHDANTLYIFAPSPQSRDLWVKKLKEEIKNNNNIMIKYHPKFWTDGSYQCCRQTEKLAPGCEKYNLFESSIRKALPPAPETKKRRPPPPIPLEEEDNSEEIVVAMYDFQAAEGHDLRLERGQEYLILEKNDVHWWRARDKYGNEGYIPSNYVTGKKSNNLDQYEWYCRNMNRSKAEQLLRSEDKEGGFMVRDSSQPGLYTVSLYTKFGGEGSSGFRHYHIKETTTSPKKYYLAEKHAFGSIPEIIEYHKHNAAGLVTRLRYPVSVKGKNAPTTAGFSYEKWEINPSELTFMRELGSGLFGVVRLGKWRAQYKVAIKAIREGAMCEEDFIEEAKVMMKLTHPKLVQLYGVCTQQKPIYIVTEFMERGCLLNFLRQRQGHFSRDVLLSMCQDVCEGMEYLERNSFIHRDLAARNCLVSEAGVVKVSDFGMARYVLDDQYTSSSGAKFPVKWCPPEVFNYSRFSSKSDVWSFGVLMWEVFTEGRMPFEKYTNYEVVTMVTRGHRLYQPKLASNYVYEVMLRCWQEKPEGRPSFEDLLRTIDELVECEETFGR
ACK, sequence (Q07912 whole entry): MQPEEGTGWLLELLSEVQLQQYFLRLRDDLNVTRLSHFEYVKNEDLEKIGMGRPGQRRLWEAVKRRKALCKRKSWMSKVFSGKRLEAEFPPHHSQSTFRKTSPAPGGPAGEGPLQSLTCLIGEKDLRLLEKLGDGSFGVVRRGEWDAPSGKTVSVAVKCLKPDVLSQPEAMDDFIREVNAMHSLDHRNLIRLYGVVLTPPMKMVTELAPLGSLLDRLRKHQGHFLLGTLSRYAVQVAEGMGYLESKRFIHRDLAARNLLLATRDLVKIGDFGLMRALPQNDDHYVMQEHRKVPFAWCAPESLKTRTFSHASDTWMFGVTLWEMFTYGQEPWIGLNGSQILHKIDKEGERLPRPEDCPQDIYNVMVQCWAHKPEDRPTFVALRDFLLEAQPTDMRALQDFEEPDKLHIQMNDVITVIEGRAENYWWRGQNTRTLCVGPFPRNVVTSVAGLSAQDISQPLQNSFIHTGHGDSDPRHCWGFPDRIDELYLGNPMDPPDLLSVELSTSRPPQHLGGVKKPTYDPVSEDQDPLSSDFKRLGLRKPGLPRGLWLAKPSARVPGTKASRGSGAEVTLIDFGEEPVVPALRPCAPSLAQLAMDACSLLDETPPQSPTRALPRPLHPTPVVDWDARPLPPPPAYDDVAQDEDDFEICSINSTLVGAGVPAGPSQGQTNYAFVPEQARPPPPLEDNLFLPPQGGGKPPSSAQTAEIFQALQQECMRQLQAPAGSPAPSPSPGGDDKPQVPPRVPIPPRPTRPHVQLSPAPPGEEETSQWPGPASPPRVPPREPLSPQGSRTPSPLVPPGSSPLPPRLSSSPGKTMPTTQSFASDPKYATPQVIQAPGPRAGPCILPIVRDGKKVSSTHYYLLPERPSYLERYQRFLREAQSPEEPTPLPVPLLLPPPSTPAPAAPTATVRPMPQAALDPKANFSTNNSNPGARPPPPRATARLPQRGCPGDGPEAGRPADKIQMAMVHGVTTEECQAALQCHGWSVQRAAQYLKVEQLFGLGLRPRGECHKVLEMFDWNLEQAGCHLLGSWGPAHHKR
MAP2K1, sequence (Q02750 whole entry): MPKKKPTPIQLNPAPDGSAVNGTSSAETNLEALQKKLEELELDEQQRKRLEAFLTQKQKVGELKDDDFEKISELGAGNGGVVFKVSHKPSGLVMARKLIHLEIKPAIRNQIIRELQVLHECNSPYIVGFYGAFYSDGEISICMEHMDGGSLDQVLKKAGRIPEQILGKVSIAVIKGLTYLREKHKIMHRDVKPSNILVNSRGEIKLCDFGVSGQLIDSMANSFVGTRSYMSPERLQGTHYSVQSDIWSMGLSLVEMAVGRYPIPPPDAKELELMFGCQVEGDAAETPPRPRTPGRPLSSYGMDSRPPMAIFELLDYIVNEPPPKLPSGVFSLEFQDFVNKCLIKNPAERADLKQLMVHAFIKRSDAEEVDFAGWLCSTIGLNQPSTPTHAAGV
MAP3K5, sequence (Q99683 whole entry): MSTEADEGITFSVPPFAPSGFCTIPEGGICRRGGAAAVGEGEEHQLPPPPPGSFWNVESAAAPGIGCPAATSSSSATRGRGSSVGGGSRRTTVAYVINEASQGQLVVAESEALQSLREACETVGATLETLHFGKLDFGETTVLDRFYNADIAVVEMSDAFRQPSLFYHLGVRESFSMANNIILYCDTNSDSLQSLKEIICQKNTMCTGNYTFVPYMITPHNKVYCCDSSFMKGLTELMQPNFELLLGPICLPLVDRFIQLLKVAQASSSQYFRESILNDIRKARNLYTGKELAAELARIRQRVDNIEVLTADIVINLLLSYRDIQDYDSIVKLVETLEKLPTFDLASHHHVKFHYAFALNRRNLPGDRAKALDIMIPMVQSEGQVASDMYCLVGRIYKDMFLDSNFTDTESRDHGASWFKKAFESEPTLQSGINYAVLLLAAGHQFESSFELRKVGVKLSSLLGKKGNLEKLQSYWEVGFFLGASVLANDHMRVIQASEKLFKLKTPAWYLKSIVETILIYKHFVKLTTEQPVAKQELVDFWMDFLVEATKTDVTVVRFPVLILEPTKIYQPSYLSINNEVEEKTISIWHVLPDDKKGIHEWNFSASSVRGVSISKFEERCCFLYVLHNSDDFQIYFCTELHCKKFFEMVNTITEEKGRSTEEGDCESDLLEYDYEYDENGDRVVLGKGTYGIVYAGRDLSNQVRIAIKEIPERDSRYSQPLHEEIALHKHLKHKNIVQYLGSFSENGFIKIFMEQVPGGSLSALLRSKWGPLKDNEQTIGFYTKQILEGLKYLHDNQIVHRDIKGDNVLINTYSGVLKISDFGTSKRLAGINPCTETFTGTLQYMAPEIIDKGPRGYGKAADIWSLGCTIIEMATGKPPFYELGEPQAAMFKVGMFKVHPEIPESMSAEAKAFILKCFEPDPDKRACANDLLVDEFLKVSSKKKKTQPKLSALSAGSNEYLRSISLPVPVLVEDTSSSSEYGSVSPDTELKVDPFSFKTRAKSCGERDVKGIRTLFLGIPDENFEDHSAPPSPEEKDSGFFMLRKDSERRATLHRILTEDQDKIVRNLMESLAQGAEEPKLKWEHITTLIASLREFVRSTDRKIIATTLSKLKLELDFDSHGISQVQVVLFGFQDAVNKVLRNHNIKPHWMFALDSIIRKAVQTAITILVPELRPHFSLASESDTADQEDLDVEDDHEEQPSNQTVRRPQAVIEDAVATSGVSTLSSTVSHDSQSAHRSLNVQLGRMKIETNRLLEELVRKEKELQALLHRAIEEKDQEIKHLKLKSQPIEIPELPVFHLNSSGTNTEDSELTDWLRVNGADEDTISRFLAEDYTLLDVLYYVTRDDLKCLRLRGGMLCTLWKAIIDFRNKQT
MAP3K4, sequence (Q9Y6R4 whole entry): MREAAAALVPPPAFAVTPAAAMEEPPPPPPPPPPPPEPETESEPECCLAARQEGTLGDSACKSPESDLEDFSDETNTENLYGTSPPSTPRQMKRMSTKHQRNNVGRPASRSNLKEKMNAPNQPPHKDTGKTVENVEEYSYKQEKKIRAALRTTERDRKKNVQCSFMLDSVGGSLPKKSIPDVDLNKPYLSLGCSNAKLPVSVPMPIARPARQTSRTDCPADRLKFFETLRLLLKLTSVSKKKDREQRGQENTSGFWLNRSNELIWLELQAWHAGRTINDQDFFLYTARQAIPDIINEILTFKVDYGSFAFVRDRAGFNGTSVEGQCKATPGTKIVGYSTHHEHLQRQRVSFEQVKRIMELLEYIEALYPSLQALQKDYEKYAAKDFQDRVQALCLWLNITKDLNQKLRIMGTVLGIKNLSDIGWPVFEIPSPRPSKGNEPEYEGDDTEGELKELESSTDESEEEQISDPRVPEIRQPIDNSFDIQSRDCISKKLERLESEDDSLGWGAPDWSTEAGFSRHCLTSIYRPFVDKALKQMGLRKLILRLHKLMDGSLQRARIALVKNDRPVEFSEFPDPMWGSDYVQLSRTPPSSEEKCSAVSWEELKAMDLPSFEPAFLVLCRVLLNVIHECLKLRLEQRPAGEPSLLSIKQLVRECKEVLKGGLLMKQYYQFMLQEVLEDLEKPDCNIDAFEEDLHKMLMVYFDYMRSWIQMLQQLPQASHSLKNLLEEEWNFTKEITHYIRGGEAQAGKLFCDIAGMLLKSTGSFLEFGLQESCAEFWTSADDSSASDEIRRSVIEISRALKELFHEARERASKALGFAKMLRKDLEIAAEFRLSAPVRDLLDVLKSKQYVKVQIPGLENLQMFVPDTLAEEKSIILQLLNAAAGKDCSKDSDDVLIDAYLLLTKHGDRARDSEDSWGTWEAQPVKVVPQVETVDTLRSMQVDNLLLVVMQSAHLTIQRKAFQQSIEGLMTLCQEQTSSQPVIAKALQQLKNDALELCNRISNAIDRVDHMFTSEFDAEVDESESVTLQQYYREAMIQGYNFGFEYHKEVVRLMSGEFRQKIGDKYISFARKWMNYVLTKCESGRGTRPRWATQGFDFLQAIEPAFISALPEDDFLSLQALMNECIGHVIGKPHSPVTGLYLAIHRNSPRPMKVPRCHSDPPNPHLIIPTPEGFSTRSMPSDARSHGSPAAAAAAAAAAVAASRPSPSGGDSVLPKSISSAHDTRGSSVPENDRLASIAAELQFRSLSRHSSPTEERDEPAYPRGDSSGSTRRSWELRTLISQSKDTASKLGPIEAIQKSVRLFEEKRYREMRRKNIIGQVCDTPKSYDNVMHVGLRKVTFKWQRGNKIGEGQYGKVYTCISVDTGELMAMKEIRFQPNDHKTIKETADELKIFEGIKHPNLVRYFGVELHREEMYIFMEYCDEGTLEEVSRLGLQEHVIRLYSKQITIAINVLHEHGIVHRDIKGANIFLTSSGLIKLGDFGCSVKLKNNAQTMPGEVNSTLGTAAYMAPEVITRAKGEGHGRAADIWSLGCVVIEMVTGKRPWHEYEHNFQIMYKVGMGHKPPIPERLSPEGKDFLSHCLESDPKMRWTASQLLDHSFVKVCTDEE

Compound: C=CC(=O)N1CCC(CNc2nccc(Nc3ncc(C(=O)Nc4c(C)cccc4C)s3)n2)C1 (racemic) [Example I-8]
- % change of MS signal compared to control sample (AurA, AurB, AurC): −2.9%
- % change of MS signal compared to control sample (Wnk1, Wnk2): −16.4%
- % change of MS signal compared to control sample (PIK3CG): −55.4%
- % change of MS signal compared to control sample (CK2a1): 13.9%
- % change of MS signal compared to control sample (MAP3K1): 15.5%
- % change of MS signal compared to control sample (NEK4): 15.2%
- % change of MS signal compared to control sample (MLK3): 11.7%
- % change of MS signal compared to control sample (CDK4): 6.1%
- % change of MS signal compared to control sample (MST1, MST2): 8.7%
- % change of MS signal compared to control sample (SRC): >90%
- % change of MS signal compared to control sample (KSR1, KSR2): −8.8%
- % change of MS signal compared to control sample (TAO1, TAO3): −8.7%
- % change of MS signal compared to control sample (FGR): 86.0%
- % change of MS signal compared to control sample (MAP3K5): −0.7%
- % change of MS signal compared to control sample (LRRK2): −12.2%
- % change of MS signal compared to control sample [1]: 13.6%
- % change of MS signal compared to control sample (TEC): 79.5% and 71.1%
- % change of MS signal compared to control sample (STLK6): −12.9%
- % change of MS signal compared to control sample (PI4KA, PI4KAP2): −9.9%
- % change of MS signal compared to control sample (p38b): 12.0%
- % change of MS signal compared to control sample (YSK1): −29.2%
- % change of MS signal compared to control sample (Erk2): −0.1%
- % change of MS signal compared to control sample (MAP3K4): 12.8%
- % change of MS signal compared to control sample (MAP3K2): 3.5%
- % change of MS signal compared to control sample (ACK): 69.9% and 82.4%
- % change of MS signal compared to control sample (MARK2, MARK3): 7.5%
- % change of MS signal compared to control sample (LCK): 94.8%
- % change of MS signal compared to control sample (MAP3K6): −8.1%
- % change of MS signal compared to control sample (CK1a): 14.9%
- % change of MS signal compared to control sample (PIP5K3): 4.2%
- % change of MS signal compared to control sample (MAST3): −8.3%
- % change of MS signal compared to control sample (MAP2K1): 1.0%
- % change of MS signal compared to control sample (PIK3CD): −16.2%
- % change of MS signal compared to control sample (TAO2): −4.9%
- % change of MS signal compared to control sample (NEK1): 12.8%
- % change of MS signal compared to control sample (PAN3): 18.3%
- % change of MS signal compared to control sample (CDK11, CDK8): 19.6%
- % change of MS signal compared to control sample (BRAF): 11.1%
- % change of MS signal compared to control sample (ABL, ARG): >90% and >97%

Compound: C=CC(=O)N1CC[C@@H](Nc2nccc(Nc3ncc(C(=O)Nc4c(C)cccc4C)s3)n2)C1 [Example I-4]
- % change of MS signal compared to control sample (AurA, AurB, AurC): 2.3%
- % change of MS signal compared to control sample (Wnk1, Wnk2): 7.8%
- % change of MS signal compared to control sample (PIK3CG): −46.3%
- % change of MS signal compared to control sample (CK2a1): 24.6%
- % change of MS signal compared to control sample (CDC2): −24.9%
- % change of MS signal compared to control sample (MAP3K1): 18.4%
- % change of MS signal compared to control sample (NEK4): 12.3%
- % change of MS signal compared to control sample (MLK3): −27.2%
- % change of MS signal compared to control sample (CDK4): 6.8%
- % change of MS signal compared to control sample (MST1, MST2): 3.8%
- % change of MS signal compared to control sample (SRC): >90%
- % change of MS signal compared to control sample (KSR1, KSR2): −8.9%
- % change of MS signal compared to control sample (TAO1, TAO3): 7.6%
- % change of MS signal compared to control sample (FGR): 87.0%
- % change of MS signal compared to control sample (MAP3K5): −10.7%
- % change of MS signal compared to control sample (LRRK2): −5.7%
- % change of MS signal compared to control sample [1]: 3.3%
- % change of MS signal compared to control sample (TEC): 68.7% and 73.7%
- % change of MS signal compared to control sample (AMPKa1, AMPKa2): −40.3%
- % change of MS signal compared to control sample (STLK6): 7.4%
- % change of MS signal compared to control sample (PI4KA, PI4KAP2): −37.7%
- % change of MS signal compared to control sample (p38b): −29.6%
- % change of MS signal compared to control sample (YSK1): −58.5%
- % change of MS signal compared to control sample (Erk2): −3.2%
- % change of MS signal compared to control sample (MAP3K4): −20.5%
- % change of MS signal compared to control sample (MAP3K2): 12.1%
- % change of MS signal compared to control sample (ACK): 27.0% and 22.8%
- % change of MS signal compared to control sample (MARK2, MARK3): −31.5%
- % change of MS signal compared to control sample (LCK): 96.1%
- % change of MS signal compared to control sample (MAP3K6): 10.9%
- % change of MS signal compared to control sample (CK1a): −41.3%
- % change of MS signal compared to control sample (PIP5K3): 14.5%
- % change of MS signal compared to control sample (MAST3): 2.0%
- % change of MS signal compared to control sample (MAP2K1): −31.6%
- % change of MS signal compared to control sample (PIK3CD): −14.5%
- % change of MS signal compared to control sample (TAO2): −7.0%
- % change of MS signal compared to control sample (NEK1): 7.3%
- % change of MS signal compared to control sample (PAN3): −29.0%
- % change of MS signal compared to control sample (CDK11, CDK8): −36.1%
- % change of MS signal compared to control sample (BRAF): 17.8%
- % change of MS signal compared to control sample (TLK1): 2.2% and 8.2%
- % change of MS signal compared to control sample (ABL, ARG): >90% and 91.7%
